Tests used:
[1] = biological target: T1, human GLUT1^V69M (Homo sapiens, UniProt P11166, V69M); assay: Glucose uptake by GLUT1^V69M expressed in yeast RE700A hxt^0 gal2Δ; type: cell-based; conditions: 25 µM, hxt^0 gal2Δ strain
T1 construct: expressed in transfected cells; host or cells: S. cerevisiae RE700A hxt0 gal2Δ transformed with pFL38Kan-GLUT1^V69M (TEF1 promoter, low-copy)
T1 sequence (P11166 1-492 V69M): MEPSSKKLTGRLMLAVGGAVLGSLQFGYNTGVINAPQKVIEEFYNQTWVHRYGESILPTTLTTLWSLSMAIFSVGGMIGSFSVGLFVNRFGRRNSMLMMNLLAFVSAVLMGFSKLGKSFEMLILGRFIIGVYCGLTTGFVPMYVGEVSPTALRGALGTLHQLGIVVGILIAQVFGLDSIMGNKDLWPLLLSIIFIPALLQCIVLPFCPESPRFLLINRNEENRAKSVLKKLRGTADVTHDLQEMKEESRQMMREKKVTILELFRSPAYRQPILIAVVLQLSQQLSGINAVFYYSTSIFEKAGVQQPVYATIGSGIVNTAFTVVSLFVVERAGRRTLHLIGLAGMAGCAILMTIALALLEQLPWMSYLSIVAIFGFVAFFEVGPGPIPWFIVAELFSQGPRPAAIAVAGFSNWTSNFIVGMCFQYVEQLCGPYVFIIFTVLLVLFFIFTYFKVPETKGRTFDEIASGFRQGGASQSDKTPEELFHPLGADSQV
Protocol: Cells of S. cerevisiae were either grown in minimal or rich medium. For minimal medium, cells were grown in Complete Synthetic medium (MP biomedicals) containing 0.5% (w/v) ammonium sulphate (Sigma-Aldrich), 0.17% (w/v) yeast nitrogen base without amino acids and without ammonium sulphate, supplemented with 100 mg/L adenine. In the case of auxotrophic selection, the appropriate composition of essential amino acids (MP Biomedicals) was chosen. For liquid medium, pH was adjusted to 5.5 and for solid medium (2% agar) to 6.5 with KOH. For rich medium, cells were grown on YP medium (1% w/v yeast extract, 2% w/v bacteriological peptone), supplemented with 100 mg/L adenine. Cells of the EBY.VW4000 hxt^0 strain expressing a single HXT carrier or GLUT isoform were (pre)grown in YP medium with 58 mM maltose (which is taken up by its own dedicated maltose transporter). S. cerevisiae cells were always grown at 30°C. Liquid cultures were shaken at 200 rpm.
Zero-trans uptake of radioactively labeled [U-^14C]glucose, [U-^14C]fructose or [U-^14C]galactose by S. cerevisiae cells was determined in accordance with previous studies ([45], [75]). Cells were grown on different carbon sources depending on the experiment. […] The loaded filter was transferred to a scintillation vial containing 3 mL liquid scintillation cocktail (Ultima-Flo M, Perkin Elmer) and counted using the Hidex 300 SL. […]

[2] = system: MCF10A breast epithelial cell line transformed with H-RAS^V12; assay: Growth and apoptosis of MCF10A H-RAS^V12 cells (IncuCyte); type: cell-based, human; conditions: MCF10A H-RAS^V12, 1 mM glucose, 25 µM
Protocol: For both adherent A549 and MCF10A H-RAS^V12 cell lines, growth curves were established using the IncuCyte® ZOOM technology. By collecting phase contrast images, the IncuCyte® software provides a calculated confluency percentage from which growth curves can be deducted. The cell number/density was measured by calculating the confluency of phase objects (cells) sticking on the bottom of the well. Cells were seeded at a density of 1000 - 1500 cells/well in a Nunc-Edge™ 96-well plate (Thermo Fisher Scientific) and growth was typically measured over 3 to 5 days. For the measurement of apoptosis induction using the MCF10A H-RAS^V12 cell line, the IncuCyte® Caspase-3/7 green dye was added to the medium in the recommended concentration at the beginning of the growth curve experiment. Apoptosis was detected by taking fluorescent images by excitation at 488 nm followed by IncuCyte® software analysis. Cell growth of the KMS-12-PE multiple myeloma cell line, which grows in suspension, was measured by manual cell counting. Cells were initially seeded at a density of 10^4 cells/well and incubated for 4 days after which the cell number was counted. For all cell lines, the same medium used for pregrowth was also used for the growth curve experiment, albeit with different glucose concentrations depending on the experimental design. With compound administration, the final concentration of DMSO never exceeded 0.1%. Typically, at least four technical repeats were included per condition.

[3] = system: untransformed MCF10A cell line; assay: Growth and apoptosis of untransformed MCF10A cells (IncuCyte); type: cell-based, human; conditions: 1 mM glucose, 25 µM

SMILES | inhibition of 2.5 mM glucose uptake by GLUT1^V69M [1] | induction of apoptosis (caspase 3/7 dye) [2] | inhibition of proliferation [2] | induction of apoptosis [3]
Cc1nc(Sc2nnc3n2CCCCC3)c2c(-c3cccs3)csc2n1 [WBC-A] | inhibited glucose uptake both by Hxt7 and GLUT1^V69M | – | – | –
Cc1nc(SCC(=O)c2ccc3c(c2)NC(=O)CO3)c2c(-c3cccs3)csc2n1 [WBC-11C] | – | strong induction of apoptosis | highest potency | induces apoptosis

— publication PMC11374660, “The novel family of Warbicin® compounds inhibits glucose uptake both in yeast and human cells and restrains cancer cell proliferation” (Frontiers in Oncology, 2024)
